{
  "source": "patent US8648119B2",
  "about": "“Controlled release immunomodulator compositions and methods for the treatment of otic disorders” (Otonomy, Inc., priority 2008, dated 2014)",
  "origin": "cited, not measured here",
  "key": {"[1]": {"system": "Langerhans' cells or dermal connective tissue", "settings": "in vivo"}, "[2]": {"system": "mouse collagen-induced arthritis model", "settings": "30 mg/kg dose"}, "[3]": {"system": "TNF-α production in the LPS-induced human PBMC cells", "settings": "read-out: IC50 for inhibiting TNF-α production"}, "[4]": {"molecular_target": "TACE (Homo sapiens, UniProt P78536)", "sequence (P78536 215-824)": "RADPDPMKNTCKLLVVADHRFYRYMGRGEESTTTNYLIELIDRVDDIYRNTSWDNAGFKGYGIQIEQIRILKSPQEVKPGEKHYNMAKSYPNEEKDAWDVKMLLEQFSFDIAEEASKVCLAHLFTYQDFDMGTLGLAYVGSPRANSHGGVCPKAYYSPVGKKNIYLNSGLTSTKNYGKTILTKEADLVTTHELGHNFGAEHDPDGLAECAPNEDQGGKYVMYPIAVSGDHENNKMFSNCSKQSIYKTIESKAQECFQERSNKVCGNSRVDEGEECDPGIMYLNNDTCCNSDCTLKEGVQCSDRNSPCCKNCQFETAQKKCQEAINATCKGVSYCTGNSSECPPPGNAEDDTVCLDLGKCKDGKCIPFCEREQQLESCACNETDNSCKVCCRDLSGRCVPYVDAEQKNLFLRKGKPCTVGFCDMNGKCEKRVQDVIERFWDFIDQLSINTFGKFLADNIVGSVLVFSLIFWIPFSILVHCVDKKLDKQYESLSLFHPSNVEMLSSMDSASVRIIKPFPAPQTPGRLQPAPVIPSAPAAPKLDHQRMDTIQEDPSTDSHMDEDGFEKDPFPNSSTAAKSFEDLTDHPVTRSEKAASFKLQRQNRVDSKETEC"}, "[5]": {"system": "TNF-α production in the LPS-induced MonoMac-6 cells", "settings": "read-out: IC50 for inhibiting TNF-α production"}, "[6]": {"settings": "in vivo"}, "[7]": {"system": "Meniere's disease", "settings": "infusion into the scala tympani"}, "[8]": {"system": "LPS-challenged mice"}, "[9]": {"system": "rat arthritis model", "settings": "30 mg/kg"}, "[10]": {"molecular_target": "T1, lymphotoxin (TNF-β (Homo sapiens, UniProt P01374))", "T1 sequence (P01374 35-205)": "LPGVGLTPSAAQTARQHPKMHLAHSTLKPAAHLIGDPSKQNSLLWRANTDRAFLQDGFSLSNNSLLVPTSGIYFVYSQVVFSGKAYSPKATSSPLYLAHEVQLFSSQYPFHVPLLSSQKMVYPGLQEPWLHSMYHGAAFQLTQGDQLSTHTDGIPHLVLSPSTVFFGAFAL"}, "[11]": {"system": "TNF expressing cells", "settings": "in vitro, in the presence of complement"}, "[12]": {"system": "patients"}, "[13]": {"system": "patients", "settings": "three phase-III clinical trials"}},
  "data": [
    {"compound": "C=CC[C@@H]1/C=C(\\C)C[C@H](C)C[C@H](OC)[C@H]2O[C@@](O)(C(=O)C(=O)N3CCCC[C@H]3C(=O)O[C@H](/C(C)=C/[C@@H]3CC[C@@H](O)[C@H](OC)C3)[C@H](C)[C@@H](O)CC1=O)[C@H](C)C[C@@H]2OC", "note": "(relative stereo) [tacrolimus, [3S-[3R*[E(1S*,3S*,4S*)], 4S*,5R*,8S*,9E,12R*,14R*,15S*,16R*,18S*,19S*,26aR*]]-5,6,8,11,12,13,14,15,16,17,18,19,24,25,26,26a-hexadecahydro-5,19-dihydroxy-3-[2-(4-hydroxy-3-methoxycyclohexyl)-1-methylethenyl]-14,16-dimethoxy-4,10,12,18-tetramethyl-8-(2-propenyl)-15,19-epoxy-3H-pyrido[2,1-39c][1,4]oxaazacyclotricosine-1,7,20,21 (4H,23H)-tetrone monohydrate]", "values": [
      {"measurement": "atrophy of the skin", "setting": "[1]", "value": "do not cause atrophy of the skin"},
      {"measurement": "suppression of Langerhans' cells or dermal connective tissue", "setting": "[1]", "value": "do not suppress Langerhans' cells or dermal connective tissue"},
      {"measurement": "bioavailability after topical application", "value": "less than 0.5%"},
      {"measurement": "systemic exposure after topical application", "value": "very little, if any, systemic exposure"}
    ]},
    {"compound": "Cc1ccc2nc(NCCN)c3ncc(C)n3c2c1", "note": "[BMS-345541]", "values": [
      {"measurement": "severity of disease", "setting": "[2]", "value": "significantly reduced the severity of disease"}
    ]},
    {"compound": "CC[C@H](C)[C@H](NC(=O)[C@H](CC(C)C)[C@H](C(C)C)N(O)C=O)C(=O)Nc1ccccn1", "note": "[GW3333]", "values": [
      {"measurement": "IC50", "setting": "[3]", "value": 970, "unit": "nM"}
    ]},
    {"compound": "CC(C)C[C@@H](C(=O)N[C@@H](CCCN/C(N)=N/[N+](=O)[O-])C(=O)Nc1nccs1)[C@H](C(C)C)N(O)C=O", "note": "[Nitroarginine analog A]", "values": [
      {"measurement": "IC50", "setting": "[4]", "value": 4, "unit": "nM"},
      {"measurement": "IC50", "setting": "[5]", "value": 34, "unit": "nM"},
      {"measurement": "oral activity", "setting": "[6]", "value": "lacks oral activity"}
    ]},
    {"compound": "Cc1ccccc1C(=O)Nc1ccc(C(=O)N2CCCC(N(C)C)c3ccccc32)cc1", "note": "(centres unmarked) [OPC-31260]", "values": [
      {"measurement": "Meniere's disease symptoms", "setting": "[7]", "value": "marked reduction of Meniere's disease symptoms"}
    ]},
    {"compound": "O=C(Nc1cc(Cl)cc2c1[nH]c1cnccc12)c1cccnc1", "note": "[PS-1145]", "values": [
      {"measurement": "production of TNF-α", "setting": "[8]", "value": "reduces the production of TNF-α"}
    ]},
    {"compound": "COc1cccc2nc(-c3cccs3)nc(NN3C(=O)C=C(C)C3=O)c12", "note": "[SPC-839]", "values": [
      {"measurement": "paw edema", "setting": "[9]", "value": "reduces paw edema"}
    ]},
    {"compound": "CC[C@@H]1/C=C(\\C)C[C@H](C)C[C@H](OC)[C@H]2O[C@@](O)(C(=O)C(=O)N3CCCC[C@H]3C(=O)O[C@H](/C(C)=C/[C@@H]3CC[C@H](Cl)[C@H](OC)C3)[C@H](C)[C@@H](O)CC1=O)[C@H](C)C[C@@H]2OC", "note": "[pimecrolimus, (1R,9S,12S,13R,14S,17R,18E,21S,23S,24R,25S,27R)-12-[(1E)-2-{(1R,3R,4S)-4-chloro-3-methoxycyclohexyl}-1-methylvinyl]-17-ethyl-1,14-dihydroxy-23,25-dimethoxy-13,19,21,27-tetramethyl-11,28-dioxa-4-aza-tricyclo[22.3.1.04,9]octacos-18-ene-2,3,10,16-tetraone]", "values": [
      {"measurement": "atrophy of the skin", "setting": "[1]", "value": "do not cause atrophy of the skin"},
      {"measurement": "suppression of Langerhans' cells or dermal connective tissue", "setting": "[1]", "value": "do not suppress Langerhans' cells or dermal connective tissue"},
      {"measurement": "systemic exposure after topical application", "value": "very little, if any, systemic exposure"}
    ]},
    {"compound": "Adalimumab", "values": [
      {"measurement": "binding or inactivation of lymphotoxin (TNF-β)", "setting": "[10]", "value": "does not bind or inactivate lymphotoxin"},
      {"measurement": "lysis of TNF expressing cells", "setting": "[11]", "value": "lyses TNF expressing cells in vitro"},
      {"measurement": "patients developing injection site reactions (erythema and/or itching, hemorrhage, pain and/or swelling)", "setting": "[12]; systemic administration", "value": 20, "unit": "%"}
    ]},
    {"compound": "etanercept", "values": [
      {"measurement": "patients experiencing injection site reactions (mild to moderate erythema and/or itching, pain and/or swelling)", "setting": "[12]; systemically treated", "value": "over one-third of patients"}
    ]},
    {"compound": "onercept: a soluble TNF p55 receptor, TNF binding factor (Serono)", "values": [
      {"measurement": "adverse outcome reported in phase-III clinical trials", "setting": "[13]", "value": "patients diagnosed with fatal sepsis"}
    ]}
  ]
}
